Article PMC11770101, “Nonenzymatic lysine D-lactylation induced by glyoxalase II substrate SLG dampens inflammatory immune responses” (Cell Research, 2025)

Target: T1, glyoxalase II (GLO2) (Mus musculus, UniProt Q99KB8)
T1 construct: gene Hagh
Assay: LC-MS quantification of accumulated GLO2 substrate SLG in BMDMs treated with […] DiFMOC-G for […] h
Assay type: cell-based

O=C(O)CNC(=O)[C@H](CSC(=O)OCC1c2ccccc2-c2ccccc21)NC(=O)CC[C@H](NC(=O)OCC1c2ccccc2-c2ccccc21)C(=O)O [DiFMOC-G]
LC-MS quantification of accumulated GLO2 substrate SLG in BMDMs treated with 0.4: treatment with DiFMOC-G could dramatically induce SLG accumulation (Fig. 4e), recapitulating changes observed during macrophage activation
